Experiments:
Format in all cases: in vivo
[1] = system: Italian ryegrass (Lolium multiflorum); assay: Test A postemergence; settings: Lolium multiflorum, post-emergence, 240 h, 0 to 100 scale, read-out: Plant response rating, Ryegrass, Italian
Summary of the method: (§1)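 Compounds in non-phytotoxic solvent with surfactant applied as soil spray preemergence, or postemergence to plants 2-10 cm at one- to two-leaf stage, in loam/sand. After approximately 10 days in greenhouse, injury rated visually versus untreated controls, 0 (no effect) to 100 (complete control).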

corn (Zea mays) = assay: Test A postemergence; settings: Zea mays, post-emergence, 240 h, 0 to 100 scale
Summary of the method: as §1

[2] = system: wheat (Triticum aestivum); assay: Test A postemergence; settings: Triticum aestivum, post-emergence, 240 h, 0 to 100 scale, read-out: Plant response rating, Wheat
Summary of the method: as §1

[3] = system: galium (catchweed bedstraw, Galium aparine); assay: Test A postemergence; settings: Galium, post-emergence, 240 h, 0 to 100 scale, read-out: Plant response rating, Galium
Summary of the method: as §1

[4] = system: ragweed (common ragweed, Ambrosia elatior); assay: Test A postemergence; settings: Ambrosia artemisiifolia, post-emergence, 240 h, 0 to 100 scale, read-out: Plant response rating, Ragweed
Summary of the method: as §1

[5] = system: barnyardgrass (Echinochloa crus-galli); assay: Test A postemergence; settings: Echinochloa crus-galli, post-emergence, 240 h, 0 to 100 scale, read-out: Plant response rating, Barnyardgrass
Summary of the method: as §1

[6] = system: giant foxtail (Setaria faberii); assay: Test A postemergence; settings: Setaria faberi, post-emergence, 240 h, 0 to 100 scale, read-out: Plant response rating, Foxtail, Giant
Summary of the method: as §1

kochia (Kochia scoparia) [7] = assay: Test A postemergence; settings: Bassia scoparia, post-emergence, 240 h, 0 to 100 scale, read-out: Plant response rating, Kochia
Summary of the method: as §1

[8] = system: blackgrass (Alopecurus myosuroides); assay: Test A postemergence; settings: Alopecurus myosuroides, post-emergence, 240 h, 0 to 100 scale, read-out: Plant response rating, Blackgrass
Summary of the method: as §1

[9] = system: pigweed (Amaranthus retroflexus); assay: Test A postemergence; settings: Amaranthus retroflexus, post-emergence, 240 h, 0 to 100 scale, read-out: Plant response rating, Pigweed
Summary of the method: as §1

[10] = system: Italian ryegrass (Lolium multiflorum); assay: Test A preemergence; settings: Lolium multiflorum, pre-emergence, 240 h, 0 to 100 scale, read-out: Plant response rating, Ryegrass, Italian
Summary of the method: as §1

[11] = system: ragweed (common ragweed, Ambrosia elatior); assay: Test A preemergence; settings: Ambrosia artemisiifolia, pre-emergence, 240 h, 0 to 100 scale, read-out: Plant response rating, Ragweed
Summary of the method: as §1

[12] = system: barnyardgrass (Echinochloa crus-galli); assay: Test A preemergence; settings: Echinochloa crus-galli, pre-emergence, 240 h, 0 to 100 scale, read-out: Plant response rating, Barnyardgrass
Summary of the method: as §1

[13] = system: giant foxtail (Setaria faberii); assay: Test A preemergence; settings: Setaria faberi, pre-emergence, 240 h, 0 to 100 scale, read-out: Plant response rating, Foxtail, Giant
Summary of the method: as §1

kochia (Kochia scoparia) [14] = assay: Test A preemergence; settings: Bassia scoparia, pre-emergence, 240 h, 0 to 100 scale, read-out: Plant response rating, Kochia
Summary of the method: as §1

[15] = system: pigweed (Amaranthus retroflexus); assay: Test A preemergence; settings: Amaranthus retroflexus, pre-emergence, 240 h, 0 to 100 scale, read-out: Plant response rating, Pigweed
Summary of the method: as §1

[16] = system: galium (catchweed bedstraw, Galium aparine); assay: Test C postemergence; settings: Galium, post-emergence, 336 h, Postemergence, scale 0 to 100, read-out: Plant response rating, Galium
Excerpt: (§2) Seeds of plant species selected from blackgrass (Alopecurus myosuroides), Italian ryegrass (Lolium multiflorum), winter wheat (Triticum aestivum), galium (catchweed bedstraw, Galium aparine), corn (Zea mays), large (Lg) crabgrass (Digitaria sanguinalis), giant foxtail (Setaria faberii), johnsongrass (Sorghum halepense), lambsquarters (Chenopodium album), morningglory (Ipomoea coccinea), yellow nutsedge (Cyperus esculentus), pigweed (Amaranthus retroflexus), ragweed (common ragweed, Ambrosia elatior), soybean (Glycine max), barnyardgrass (Echinochloa crus-galli), oilseed rape (Brassica napus), waterhemp (common waterhemp, Amaranthus rudis), and velvetleaf (Abutilon theophrasti) were planted into a blend of loam soil and sand and treated preemergence with test chemicals formulated in a non-phytotoxic solvent mixture which included a surfactant.
(§3) At the same time, plants selected from these crop and weed species and also chickweed (common chickweed, Stellaria media), kochia (Kochia scoparia), and wild oat (Avena fatua), were planted in pots containing Redi-Earth® planting medium (Scotts Company, 14111 Scottslawn Road, Marysville, Ohio 43041) comprising spaghnum peat moss, vermiculite, wetting agent and starter nutrients and treated with postemergence applications of test chemicals formulated in the same manner. Plants ranged in height from 2 to 18 cm (1- to 4-leaf stage) for postemergence treatments. Treated plants and controls were maintained in a greenhouse for 13 to 15 days, after which time all species were compared to controls and visually evaluated. Plant response ratings, summarized in Table C, are based on a scale of 0 to 100 where 0 is no effect and 100 is complete control. A dash (-) response means no test result.

[17] = system: morningglory (Ipomoea coccinea); assay: Test C postemergence; settings: Ipomoea, post-emergence, 336 h, Postemergence, scale 0 to 100, read-out: Plant response rating, Morningglory
Excerpt: as §2, §3

[18] = system: giant foxtail (Setaria faberii); assay: Test C postemergence; settings: Setaria faberi, post-emergence, 336 h, Postemergence, scale 0 to 100, read-out: Plant response rating, Foxtail, Giant
Excerpt: as §2, §3

[19] = system: ducksalad (Heteranthera limosa); assay: Test B flooded paddy; settings: Heteranthera limosa, 336 h; 250 g ai/ha, Flood, 13 to 15 days, scale 0 (no effect) to 100 (complete control); read-out: Plant response rating, Ducksalad
Summary of the method: (§4)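 Greenhouse pots flooded to 3 cm above soil at time of treatment received compound via the water, which stayed at that level.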

[20] = system: barnyardgrass (Echinochloa crus-galli); assay: Test B flooded paddy; settings: Echinochloa crus-galli, 336 h; 250 g ai/ha, Flood, 13 to 15 days, scale 0 (no effect) to 100 (complete control); read-out: Plant response rating, Barnyardgrass
Summary of the method: as §4

[21] = system: sedge, umbrella (small-flower umbrella sedge, Cyperus difformis); assay: Test B flooded paddy; settings: Cyperus difformis, 336 h; 250 g ai/ha, Flood, 13 to 15 days, scale 0 (no effect) to 100 (complete control); read-out: Plant response rating, Sedge, Umbrella
Summary of the method: as §4

rice (Oryza sativa) = assay: Test B flooded paddy; settings: Oryza sativa, 336 h; 250 g ai/ha, Flood, 13 to 15 days, scale 0 (no effect) to 100 (complete control); read-out: Plant response rating, Rice
Summary of the method: as §4

N#Cc1cccc(Oc2ncc(Cl)cn2)c1Oc1ncc(Br)cn1 [Compound 4, 2-[(5-bromo-2-pyrimidinyl)oxy]-3-[(5-chloro-2-pyrimidinyl)oxy]benzonitrile]
45%: pest or weed control at 62 g/ha ([18]; 62 g ai/ha)
100%: pest or weed control at 125 g/ha ([1]; 125 g ai/ha) | pest or weed control at 500 g/ha ([1]; 500 g ai/ha) | Corn plant response rating (crop injury, 0 = no effect, 100 = complete kill) at 500 g/ha (corn (Zea mays); 500 g ai/ha) | plant injury at 500 g/ha ([2]; 500 g ai/ha) | pest or weed control at 125 g/ha ([3]; 125 g ai/ha) | pest or weed control at 500 g/ha ([3]; 500 g ai/ha) | pest or weed control at 125 g/ha ([4]; 125 g ai/ha) | pest or weed control at 500 g/ha ([4]; 500 g ai/ha) | pest or weed control at 125 g/ha ([5]; 125 g ai/ha) | pest or weed control at 500 g/ha ([5]; 500 g ai/ha) | pest or weed control at 125 g/ha ([6]; 125 g ai/ha) | pest or weed control at 500 g/ha ([6]; 500 g ai/ha) | pest or weed control at 125 g/ha (kochia (Kochia scoparia) [7]; 125 g ai/ha) | pest or weed control at 500 g/ha (kochia (Kochia scoparia) [7]; 500 g ai/ha) | pest or weed control at 125 g/ha ([8]; 125 g ai/ha) | pest or weed control at 500 g/ha ([8]; 500 g ai/ha) | pest or weed control at 125 g/ha ([9]; 125 g ai/ha) | pest or weed control at 500 g/ha ([9]; 500 g ai/ha) | pest or weed control at 500 g/ha ([10]; 500 g ai/ha) | pest or weed control at 500 g/ha ([11]; 500 g ai/ha) | pest or weed control at 500 g/ha ([12]; 500 g ai/ha) | pest or weed control at 125 g/ha ([13]; 125 g ai/ha) | pest or weed control at 500 g/ha ([13]; 500 g ai/ha) | pest or weed control at 500 g/ha (kochia (Kochia scoparia) [14]; 500 g ai/ha) | pest or weed control at 125 g/ha ([15]; 125 g ai/ha) | pest or weed control at 500 g/ha ([15]; 500 g ai/ha)
20%: pest or weed control at 125 g/ha ([10]; 125 g ai/ha)
50%: plant injury at 125 g/ha ([2]; 125 g ai/ha)
95%: pest or weed control at 125 g/ha ([16]; 125 g ai/ha) | pest or weed control at 125 g/ha ([17]; 125 g ai/ha) | pest or weed control at 250 g/ha [19]
60%: pest or weed control at 62 g/ha ([16]; 62 g ai/ha)
0%: pest or weed control at 250 g/ha [20] | plant injury at 250 g/ha (rice (Oryza sativa))
40%: pest or weed control at 16 g/ha ([18]; 16 g ai/ha) | pest or weed control at 31 g/ha ([18]; 31 g ai/ha)
55%: pest or weed control at 16 g/ha ([16]; 16 g ai/ha) | pest or weed control at 31 g/ha ([16]; 31 g ai/ha)
80%: Corn plant response rating (crop injury, 0 = no effect, 100 = complete kill) at 125 g/ha (corn (Zea mays); 125 g ai/ha) | pest or weed control at 125 g/ha ([11]; 125 g ai/ha) | pest or weed control at 31 g/ha ([17]; 31 g ai/ha) | pest or weed control at 250 g/ha [21]
35%: pest or weed control at 125 g/ha ([18]; 125 g ai/ha)
70%: pest or weed control at 125 g/ha ([12]; 125 g ai/ha)
90%: pest or weed control at 125 g/ha (kochia (Kochia scoparia) [14]; 125 g ai/ha)
85%: pest or weed control at 62 g/ha ([17]; 62 g ai/ha)
